Test results: US20130079370A1, “Method for the Inhibition of Deubiquitinating Activity” (priority 2011, published 2013)

Experiments:
[1] = test system: HCT116 cells; assay type: cell-based; conditions: human
Source text: These findings indicate that high molecular weight ubiquitin substrate complexes accumulating as a result of DUB inhibition can generate strong cytotoxicity that is insensitive to Bcl-2 over-expression. [table]

[2] = test system: isogenic clones of HCT116 colon cancer cells; conditions: literature refs (11, 12); cited from earlier work

In the case of `CC(C)C[C@H](NC(=O)[C@H](Cc1ccccc1)NC(=O)c1cnccn1)B(O)O` [bortezomib, reference compound], the “Fold induction DNAJB1 (Hsp40B1)” value [1] is reported as 5 fold, the “Fold induction HSPA1B” value [1] is reported as 12 fold and the “Fold induction HSPA6 (Hsp70B′)” value [1] is reported as 60 fold. The “sensitivity of apoptosis induction to apoptosis regulators” value [2] was “sensitive to the status of the p53 tumor suppressor and over-expression of the anti-apoptotic Bcl-2 oncoprotein”.
